Laboratory results taken from ChEMBL document CHEMBL1129517, “Pyrazolo[4,3-e]-1,2,4-triazolo[1,5-c]pyrimidine derivatives: potent and selective A(2A) adenosine antagonists” (J Med Chem, 1996).

How the values were obtained:
Adenosine receptor A1 = biological target: T1, Adenosine receptor A1 (Rattus norvegicus, UniProt P25099); assay: biochemical
T1 sequence (P25099 whole entry): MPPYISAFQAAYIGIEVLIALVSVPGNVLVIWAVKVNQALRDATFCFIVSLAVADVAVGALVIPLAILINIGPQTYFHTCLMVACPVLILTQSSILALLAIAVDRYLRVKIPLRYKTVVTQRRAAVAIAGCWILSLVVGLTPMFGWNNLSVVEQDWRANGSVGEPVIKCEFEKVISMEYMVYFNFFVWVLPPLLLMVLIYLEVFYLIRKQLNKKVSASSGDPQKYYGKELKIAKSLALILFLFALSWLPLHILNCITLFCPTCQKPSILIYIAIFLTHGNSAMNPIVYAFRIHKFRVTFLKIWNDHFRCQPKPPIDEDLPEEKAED
Description: Inhibition of [3H]-CHA binding to Adenosine A1 receptor in rat whole brain homogenates.

Adenosine receptor A2a = Adenosine receptor A2a (Rattus norvegicus, UniProt P30543)
Sequence of Adenosine receptor A2a (P30543 whole entry): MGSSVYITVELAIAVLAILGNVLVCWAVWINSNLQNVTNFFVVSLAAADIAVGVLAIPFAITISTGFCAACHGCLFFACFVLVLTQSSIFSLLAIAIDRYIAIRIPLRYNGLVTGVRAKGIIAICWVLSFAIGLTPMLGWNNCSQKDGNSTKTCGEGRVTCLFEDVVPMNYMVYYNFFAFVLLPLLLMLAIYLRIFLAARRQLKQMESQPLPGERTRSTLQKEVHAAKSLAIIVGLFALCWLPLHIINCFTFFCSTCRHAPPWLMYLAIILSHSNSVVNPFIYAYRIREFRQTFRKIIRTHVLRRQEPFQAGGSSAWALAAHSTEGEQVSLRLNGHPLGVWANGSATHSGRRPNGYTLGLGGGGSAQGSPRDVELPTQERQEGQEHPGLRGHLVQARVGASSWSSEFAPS
Description: Inhibition of [3H]-CGS- 21680 binding to Adenosine A2A receptor in rat striatal homogenates.

[1] = tested on: Adenosine receptor A2a (Oryctolagus cuniculus)

Ki (Adenosine receptor A1) [nM]	Ki (Adenosine receptor A2a) [nM]	ED50 [1] [nM]	Structure (SMILES)
> 1000	> 1000	–	Nc1nc2c(cnn2CCOCc2ccccc2)c2nc(-c3ccco3)nn12
–	–	300	CCCCn1ncc2c1nc(N)n1nc(-c3ccco3)nc21
210	22.6	–	Nc1nc2n[nH]cc2c2nc(-c3ccco3)nn12
–	77.7	–	Nc1nc2c(cnn2CCO)c2nc(-c3ccco3)nn12
2710	21	–	Nc1nc2c(cnn2CCCCc2ccccc2)c2nc(-c3ccco3)nn12
> 3000	22	< 1000	CC(C)Cc1ccc(CCn2ncc3c2nc(N)n2nc(-c4ccco4)nc32)cc1
471	5.6	30	Nc1nc2c(cnn2CCN2CCOCC2)c2nc(-c3ccco3)nn12
504	2.4	–	Nc1nc2c(cnn2CCCc2ccccc2)c2nc(-c3ccco3)nn12 [SCH-63390]
116	12	–	CCC(C)Cn1ncc2c1nc(N)n1nc(-c3ccco3)nc21 (centres undefined)
430	260	–	CC(C)(C)n1ncc2c1nc(N)n1nc(-c3ccco3)nc21
–	–	4	Nc1nc2nn(Cc3ccc(F)cc3)cc2c2nc(-c3ccco3)nn12
330	166	–	OCCn1ncc2c1nc(NCc1ccccc1)n1nc(-c3ccco3)nc21

Structure (SMILES)	Ki (Adenosine receptor A1) [nM]	Ki (Adenosine receptor A2a) [nM]	ED50 [1] [nM]
Nc1nc2c(cnn2Cc2ccc(F)cc2)c2nc(-c3ccco3)nn12	189	12	10600
Nc1nc2c(cnn2-c2ccccc2)c2nc(-c3ccco3)nn12	119	22.7	> 1000
